Earlier results as cited in patent US11414421B2, “Process for the preparation of ribociclib succinate and its novel crystalline forms thereof” (NATCO PHARMA LTD, priority 2018, dated 2022).
Read-outs that look alike come from different tables or passages of the source.

## CN(C)C(=O)c1cc2cnc(Nc3ccc(N4CCNCC4)cn3)nc2n1C1CCCC1.O=C(O)CCC(=O)O [Ribociclib succinate, 7-cyclopentyl-N,N-dimethyl-2-{[5-(piperazin-1-yl)pyridin-2-yl]amino}-7H-pyrrolo [2,3-d]pyrimidine-6-carboxamide succinate (1/1)]
Relative humidity 0-90-0% RH
  absorbs moisture: up to 2.0%
Second value, printed as 0-90-0% RH
  absorbs moisture: up to 0.5%
